Test results published in ChEMBL document CHEMBL6078705 (Bioorg Med Chem, 2025).
Active and inactive are the calls of the source. No cut-off for these calls is given here.

Key:
[1] = tested on: MCF7; experiment: Cytotoxicity against human MCF7 cells assessed as cell growth inhibition; assay type: functional
[2] = Inhibition of bovine brain tubulin polymerization preincubated for 15 mins followed by GTP addition and measured after 20 mins by spectrophotometric analysis; set-up: species or system Bos taurus
[3] = biological target: Tubulin (Homo sapiens) (UniProt P68371+Q9H4B7+P0DPH7+P68366+Q13509+Q71U36+P04350+Q3ZCM7+P07437+P68363+Q9BQE3+Q6PEY2+Q13885+Q9BVA1+Q9BUF5); experiment: Inhibition of [3H]Colchicine binding to tubulin (unknown origin) at 5 uM incubated for 10 mins in presence of GTP by Beckman scintillation counter relative to control; assay type: protein-complex assay
[4] = tested on: MDA-MB-231; experiment: Cytotoxicity against human MDA-MB-231 cells assessed as cell growth inhibition incubated for 96 hrs by SRB assay; assay type: functional
[5] = tested on: Mus musculus; experiment: Vascular disrupting activity in female BALB/c mouse implanted with orthotropic 4T1-Luc cells assessed as reduction in bioluminescence imaging signal at 20 mg/kg, ip measured at 4 hrs by imaging analysis; assay type: functional, organism-based
[6] = Toxicity in female BALB/c mouse implanted with orthotropic 4T1-Luc cells assessed as animal death at >50 mg/kg, ip measured within 24 hrs; assay type: organism-based; details: in vivo
[7] = tested on: Mus musculus; experiment: Vascular disrupting activity in female BALB/c mouse implanted with orthotropic 4T1-Luc cells assessed as reduction in bioluminescence imaging signal at 20 mg/kg, ip measured at 24 hrs by imaging analysis relative to control; assay type: functional; set-up: scale not given: the % may be the effect or the level left
[8] = tested on: Mus musculus; experiment: Vascular disrupting activity in female BALB/c mouse implanted with orthotropic 4T1-Luc cells assessed as reduction in bioluminescence imaging signal at 50 mg/kg, ip measured at 4 hrs by imaging analysis relative to control; assay type: functional; set-up: scale not given: the % may be the effect or the level left
[9] = Toxicity in female syngenic BALB/c mouse implanted with orthotropic RENCA-Luc cells assessed as animal death at 50 to 100 mg/kg, ip measured after 24 hrs; assay type: organism-based; details: in vivo, dose 50-100 mg/kg
[10] = tested on: Mus musculus; experiment: Vascular disrupting agent in female syngenic BALB/c mouse implanted with orthotropic RENCA-Luc cells assessed as reduction in bioluminescence imaging signal at 100 mg/kg, ip measured at 4 hrs by imaging analysis relative to control; assay type: functional; set-up: scale not given: the % may be the effect or the level left
[11] = tested on: Mus musculus; experiment: Vascular disrupting agent in female syngenic BALB/c mouse implanted with orthotropic RENCA-Luc cells assessed as reduction in bioluminescence imaging signal at 50 mg/kg, ip measured at 4 hrs by imaging analysis relative to control; assay type: functional; set-up: scale not given: the % may be the effect or the level left
[12] = tested on: Mus musculus; experiment: Vascular disrupting agent in female syngenic BALB/c mouse implanted with orthotropic RENCA-Luc cells assessed as reduction in bioluminescence imaging signal at 100 mg/kg, ip measured at 24 hrs by imaging analysis; assay type: functional, organism-based
[13] = tested on: Mus musculus; experiment: Vascular disrupting agent in female syngenic BALB/c mouse implanted with orthotropic RENCA-Luc cells assessed as reduction in bioluminescence imaging signal at 50 mg/kg, ip measured at 24 hrs by imaging analysis; assay type: functional, organism-based

COc1ccc(-c2[nH]c3c(OC)c(OC)c(OC)cc3c2C(=O)c2cc(OC)c(OC)c(OC)c2)cc1O
GI50 [1]: > 5000 nM | IC50 [2]: > 20000 nM

COc1ccc2c(C(=O)c3cc(F)cc(F)c3)c(-c3ccc(OC)c(O)c3)[nH]c2c1
GI50 [1]: 1500 nM | inhibition [3]: 50% | GI50 [4]: 3170 nM | IC50 [2]: 820 nM

COc1ccc2c(C(=O)c3cc(OC)c(OC)c(OC)c3)c(-c3ccc(OC)c([N+](=O)[O-])c3)[nH]c2c1
GI50 [1]: 120 nM | inhibition [3]: 24% | GI50 [4]: 275 nM | IC50 [2]: 770 nM

COc1ccccc1-c1[nH]c2cc(OC)c(OC)c(OC)c2c1C(=O)c1cc(OC)c(OC)c(OC)c1
GI50 [1]: 85 nM | inhibition [3]: 70% | GI50 [4]: 6980 nM | IC50 [2]: 920 nM

COc1ccc2c(C(=O)c3cc(OC)c(OC)c(OC)c3)c(-c3ccc(OC)c(Br)c3)[nH]c2c1
GI50 [1]: 413 nM | inhibition [3]: 34% | GI50 [4]: 483 nM | IC50 [2]: 1200 nM

COc1ccc2c(C(=O)c3cccc(F)c3)c(-c3ccc(OC)c(O)c3)[nH]c2c1
GI50 [1]: 2500 nM | inhibition [3]: 25% | GI50 [4]: 7110 nM | IC50 [2]: 1600 nM

COc1ccc(-c2[nH]c3c(O)c(OC)ccc3c2C(=O)c2cc(OC)c(OC)c(OC)c2)cc1
GI50 [1]: 6 nM | GI50 [4]: 170 nM | IC50 [2]: 860 nM

COc1ccc(-c2[nH]c3c(C)c(C)ccc3c2C(=O)c2cc(OC)c(OC)c(OC)c2)cc1O
GI50 [1]: > 5000 nM | IC50 [2]: > 20000 nM

COc1ccc2c(C(=O)c3cc(Cl)cc(Cl)c3)c(-c3ccc(OC)c(O)c3)[nH]c2c1
GI50 [1]: 240 nM | inhibition [3]: 80% | GI50 [4]: 133 nM | IC50 [2]: 740 nM

COc1ccc2c(C(=O)c3c(F)c(F)c(F)c(F)c3F)c(-c3ccc(OC)c(O)c3)[nH]c2c1
GI50 [1]: > 5000 nM | IC50 [2]: > 20000 nM

COc1cccc(C(=O)c2c(-c3ccc(OC)c(O)c3)[nH]c3cc(OC)ccc23)c1
GI50 [1]: 490 nM | inhibition [3]: 33% | GI50 [4]: 537 nM | IC50 [2]: 4200 nM

COc1ccc(-c2[nH]c3c(OP(=O)([O-])[O-])c(OC)ccc3c2C(=O)c2cc(OC)c(OC)c(OC)c2)cc1OC.[Na+].[Na+]
Activity [5]: inactive | Activity [6]: Toxic | Activity [7]: 50% | Activity [8]: 95%

COc1ccc(/C=C\c2cc(OC)c(OC)c(OC)c2)cc1O [COMBRETASTATIN A4]
GI50 [1]: 9.5 nM | GI50 [4]: 1.7 nM | IC50 [2]: 910 nM

COc1ccc(-c2[nH]c3cc(OC)c(OC)c(OC)c3c2C(=O)c2cc(OC)c(OC)c(OC)c2)cc1
GI50 [1]: 1500 nM | IC50 [2]: > 5000 nM

COc1ccc2c(C(=O)c3cc(OC)c(OC)c(OC)c3)c(-c3ccc(OC)c(N)c3)[nH]c2c1
GI50 [1]: 20 nM | inhibition [3]: 65% | GI50 [4]: 36.9 nM | IC50 [2]: 430 nM

COc1ccc(-c2[nH]c3c(OC)c(OC)ccc3c2C(=O)c2cc(OC)c(OC)c(OC)c2)cc1OP(=O)([O-])[O-].[Na+].[Na+]
Activity [9]: Non-toxic | Activity [10]: 91% | Activity [11]: 15% | Activity [12]: Active; Slight Recovery Observed | Activity [13]: Active; Little Change Observed Relative To 4 Hrs Compound Treatment

COc1ccc(-c2[nH]c3c(OC)c(OC)ccc3c2C(=O)c2cc(OC)c(OC)c(OC)c2)cc1O
GI50 [1]: 3.5 nM | GI50 [4]: 14 nM | IC50 [2]: 760 nM

COc1ccc2c(C(=O)c3cccc(Cl)c3)c(-c3ccc(OC)c(O)c3)[nH]c2c1
GI50 [1]: 470 nM | inhibition [3]: 69% | GI50 [4]: 319 nM | IC50 [2]: 450 nM

COc1cccc(-c2[nH]c3cc(OC)c(OC)c(OC)c3c2C(=O)c2cc(OC)c(OC)c(OC)c2)c1
GI50 [1]: > 5000 nM | IC50 [2]: > 5000 nM
